The text below walks through data of patent US20220265667A1 (priority 2019, published 2022).

Molecules are shown by their SMILES.

For data set [1], the system named is murine bone marrow-derived mast cells (BMMCs). Kind of data set: In vitro release of β-hexosaminidase (degranulation) from IgE-preloaded murine bone marrow-derived mast cells. It counts as cell-based, mice. Here is the method: (§1) According to the technique established by Razin et al. (Proc. Natl. Acad. Sci. USA 1981, 78:2559-2561), bone marrow cells (1×10^6/ml) from 6 to 8 week old mice (129/Sv×C57BL/6) were cultured (37° C. and 5% CO2) as single cell suspensions in RPMI 1640 medium (Sigma-Aldrich, Munich, Germany) supplemented with 15% fetal calf serum (FCS), 1% X63Ag8-653-conditioned medium (Karasuyama and Melchers, Eur. J. Immunol. 1988, 18:97-104), 2 mM L-glutamine, 10 μM β-mercaptoethanol, 50 units/ml penicillin, and […] streptomycin. At weekly intervals, the non-adherent cells were reseeded at 5×10^5 cells/ml in fresh medium. After 4-6 weeks in culture, greater than 99% of the cells were KIT- and […] as assessed by fluorescence-activated cell sorting (FACS) using phycoerythrin-labeled anti-KIT antibodies (Pharmingen, Mississauga, Canada) and fluorescein isothiocyanate (FITC)-labelled hamster anti-mouse FcεRIα antibodies (eBioscience, Frankfurt, Germany), respectively. The resulting cells are called bone marrow-derived mast cells (BMMCs).
(§2) For degranulation studies, BMMCs were preloaded with 0.15 μg/ml IgE anti-DNP (dinitrophenyl; Sigma Aldrich, Munich, Germany) overnight at 37° C. The cells were then washed and resuspended in Tyrode's buffer (130 mM NaCl, 5 mM KCl, 1.4 mM CaCl2, 1 mM MgCl2, 5.6 mM glucose, and 0.1% bovine serum albumin (BSA) in 10 mM Hepes, pH 7.4).
Subsequently, the cells were left unstimulated (unst) or stimulated with 20 ng/ml antigen (Ag: dinitrophenyl-human serum albumin ([DNP-HSA]; dissolved in medium); Sigma Aldrich, Munich, Germany) for 30 min. The degree of degranulation was determined by measuring the release of β-hexosaminidase (Nishizumi et al., J Immunol 1997; 158:2350-2355). Experiments were performed in triplicates.

Data set [2] deals with patient with therapy-resistant systemic mastocytosis. Kind of data set: Human in-vivo off-label clinical test, symptom intensity by visual analog score (VAS). Here is the method:
The results of the clinical test were closely monitored, captured and documented together with patient. The patient is and diagnosed with systemic mastocytosis (WHO criteria, KIT816V positiv) with official diagnosis. […] The current daily treatment of the patient is: H1 antihistamine 3× daily, cromolyn 4×200 mg daily, PPI 110 mg daily, Vitamine C/Vitamine D upon need, Actonel, upon need decortin 40 to 60 mg.

The test system of data set [3] is murine bone marrow-derived mast cells (BMMCs). Kind of data set: In vitro release of Interleukin-6 (IL-6) from IgE-preloaded murine bone marrow-derived mast cells (ELISA). It counts as cell-based, mice. To be noted: Mus musculus, BMMC, 3 h; read-out: percentage of inhibition of IL-6 release. Here is the method:
as §1, §2
Subsequently, the cells were left unstimulated (unst) or stimulated with 20 ng/ml Ag (dissolved in medium) for 3 h. Subsequently, the cells were pelleted by centrifugation and the resulting cell pellet was discarded. For the determination of the amount of degranulated IL-6, the respective supernatant obtained by centrifugation was subjected to an IL-6 ELISA according to the manufacturer's instructions (BD, Heidelberg, Germany). Experiments were performed in triplicate.

Setting [4] is: Mus musculus, BMMC, read-out: percentage of inhibition of β-hexosaminidase release.

The term inhibition denotes how much of the control response was suppressed.

With `CCNC1=Nc2ccc(Cl)cc2C(C)(c2ccccc2)O1` (racemic) [Etifoxine, 6-Chloro-2-N-ethyl-4-methyl-4-phenyl-4H-3,1-benzoxazine-2-amine], in data set [1] (setting [4]), the inhibition at 10 µM was 30% and the inhibition at 30 µM turned out to be 68%. In addition, in data set [1] (unstimulated (absence of Ag), independently of the concentration studied), the “activity (degranulation) of unstimulated IgE-loaded BMMCs” value is “not significantly affected”. Moreover, the “total clinical symptom intensity score (VAS)” value in data set [2] (after 6 weeks treatment, VAS baseline value 8, scale 0-10) was 4. For the same molecule, in data set [2] (during the 6 week oral treatment, one patient), the side effects result was “No side effects occurred”. In data set [2] (one patient, oral 50 to 150 mg daily, over 6 weeks), the “reduction of total clinical symptom intensity score” value came out at 50%. Also, in data set [3], the inhibition at 3 µM was 20%, the inhibition at 10 µM was determined as 48% and the inhibition at 30 µM was 92%.
